Data on two compounds can be found in patent publication US20170226507A1, “COORDINATE CONTROL OF PATHOGENIC SIGNALING BY THE MIR-130/301 FAMILY IN PULMONARY HYPERTENSION AND FIBROPROLIFERATIVE DISEASES” (The Brigham and Women's Hospital, Inc., priority 2014, published 2017).

Entries after “also recorded” stand apart in the source; their conditions may differ. No end group written: not given here.

In test [1] the test system is hypoxia-induced PH in mice. The test is described as follows: Hypoxia-induced PH in mice: BAPN (prevention, rescue) or GW3965 (prevention). Format: in vivo, mouse. An excerpt:
Finally, we wanted to determine if ApoE activity and/or LOX-dependent vascular stiffening were essential for ECM stiffening and PH development by miR-130/301. To assess the importance of ApoE activity, we attempted to prevent PH in mice via treatment with daily dietary ingestion of the liver-X nuclear hormone receptor (LXR) agonist GW3965, a known pharmacologic inducer of ApoE (Pencheva et al., 2014), simultaneously with hypoxia (FIGS. 62A-62H and 68A-H). Alternatively, experiments were designed to either prevent or reverse hypoxia-induced PH in mice via serial treatment with a pharmacologic inhibitor of LOX (Levental et al., 2009), β-aminopropionitrile BAPN, administered either simultaneously with hypoxia exposure (“prevention”) or after disease development (“reversal”) (FIGS. 62A-62H and 68A-H). In all cases of GW3965 or BAPN treatment, collagen crosslinking (FIG. 62D, 62H, FIG. 68) was inhibited, leading to decreased indices of PH, as reflected by RVSP (FIG. 62A, 62E), right ventricular remodeling (RV/LV+S ratio; FIG. 62B, 62F) and pulmonary arteriolar muscularization (FIG. 62C, 62G). GW3965 or BAPN treatment also reversed Pparγ and Lrp8 down-regulation (FIGS. 68A-68H) as well as reduced YAP nuclear localization (FIG. 62D, 62H) and YAP activation, as reflected by decreased Ctgf (FIGS. 68A-68H). Thus, considering the convergent data regarding pharmacologic manipulation of miR-130/301, APOE, and LOX, we can conclude that the YAP-TAZ-miR-130/301 circuit and its downstream network of targets act as master regulators of ECM remodeling in PH and represent a new set of targets for tailored molecular therapy in this disease.
To determine the effects of the LXR agonist GW3965 (Sigma-Aldrich) and consequent APOE induction on PH development, as previously described (Pencheva et al., 2014), mice were exposed to normobaric hypoxia and simultaneously assigned to control chow or chow supplemented with GW3965 (Research Diets, Inc.) at doses of 100 mg of drug per kilogram of mouse per day (based on average daily intake of […] of chow).
Picrosirius Red stain was achieved through the use of 5 μm paraffin sections stained with 0.1% Picrosirius Red (Direct Red80, Sigma-Aldrich) and counterstained with Weigert's hematoxylin to reveal fibrillar collagen. The sections were then serially imaged using with an analyzer and polarizer oriented parallel and orthogonal to each other. Microscope conditions (lamp brightness, condenser opening, objective, zoom, exposure time, and gain parameters) were constant throughout the imaging of all samples. A minimal threshold was set on appropriate control sections for each experiment in which only the light passing through the orthogonally-oriented polarizers representing fibrous structures (i.e., excluding residual light from the black background) was included. The threshold was maintained for all images across all conditions within each experiment. The area of the transferred regions that was covered by the thresholded light was calculated and at least 10 sections/vessel per condition were averaged together (Image J software).
This protocol was adapted from a previously published protocol (Hu et al.). Mouse lung was weighed, minced, and incubated in 0.5 M acetic acid at 4° C. After overnight digestion, the acetic acid-soluble and insoluble fractions were isolated by centrifugation. The soluble fraction was stored at −80° C., while the insoluble fraction was digested by overnight incubation in 6M hydrochloric acid at 85° C. Concentrations of soluble and insoluble (gelatinous) collagen fractions were determined using a Sircol Soluble Collagen Assay Kit (Biocolor) with a colorimetric reaction (measured at 550 nm) and a provided collagen reference standard curve.

Test [2] deals with liver-X nuclear hormone receptor (LXR). Description: Oral LXR agonist GW3965 in bleomycin-exposed mice (lung fibrosis). In kind it is in vivo, mouse. The following applies: 100 mg/kg/day in chow. The method, then:
C57BL/6 mice (7-8 weeks old) were exposed to 0.035 U of bleomycin via oropharyngeal route. In the control group, saline (PBS) was administered via the same route. Mice were euthanized 14 days or 21 days after bleomycin administration. To determine the effects of the LXR agonist GW3965 (Sigma-Aldrich) and consequent APOE induction on lung fibrosis, as previously described^12, mice were exposed to bleomycin (as described above) and simultaneously assigned to control chow or chow supplemented with GW3965 (Research Diets, Inc.) at doses of 100 mg of drug per kilogram of mouse per day (based on average daily intake of […] of chow). After two weeks, harvest of lung tissue was performed for RNA/protein extraction or paraffin embedding. Messenger RNAs were reverse transcribed using the Multiscript RT kit (Life Technologies) to generate cDNA. cDNA was amplified via fluorescently labeled Taqman primer sets using an Applied Biosystems 7900HT Fast Real Time PCR device. […] A primary antibody against YAP1 (#4912; 1/200) was obtained from Cell Signaling. Primary antibodies against, LRP8 (ab115196; 1/100), α-SMA (1/400) were purchased from Abcam. Primary antibodies against PPARγ (sc-7273; 1/50) was purchased from Santa Cruz. Primary antibody against anti-shortmer ([…]-[…]; 1/1000) was provided by Regulus Therapeutics, as previously described^2. […] Pictures were obtained using an Olympus Bx51 microscope. For liver tissue and pulmonary tissue, 10 random 20× fields per animal were analyzed. Intensity of staining was quantified using ImageJ software (NIH). […] Degree of liver fibrosis was assessed in paraffin-embedded liver sections stained for α-SMA by […] score^65. All measurements were performed blinded to condition. […] The sections were then serially imaged using with an analyzer and polarizer oriented parallel and orthogonal to each other. Microscope conditions (lamp brightness, condenser opening, objective, zoom, exposure time, and gain parameters) were constant throughout the imaging of all samples. A minimal threshold was set on appropriate control sections for each experiment in which only the light passing through the orthogonally-oriented polarizers representing fibrous structures (i.e., excluding residual light from the black background) was included. The threshold was maintained for all images across all conditions within each experiment. The area of the transferred regions that was covered by the thresholded light was calculated and at least 10 sections per condition were averaged together (Image J software).

In test [3] the test system is Bleomycin-induced lung fibrosis in mice. The test is described as follows: Bleomycin-induced lung fibrosis in mice. In kind it is in vivo, mouse.
Test [4] has as its system PASMCs. Description: Contraction assay of PASMCs in matrigel. Format: cell-based, human. The following applies: endothelin-1 for 4 days vs vehicle. The method, then:
(§1) (FIG. 40A) A schematic diagram of co-culture experiments: conditioned media from transfected PAECs (miRNA, anti-miRNA, tiny-LNA or siRNA under normoxic or hypoxic conditions) were filtered and applied onto naïve PASMCs cultured in matrigel. At specific times, PASMCs or PASMC-matrigel cultures were arrested and analyzed for STAT3 activation (phosphorylation) or contraction, respectively.
(§2) 50000 PASMC were embedded in 100 ul of matrix gel as previous described (Gagiolli et al) and plated into well of a 96 well plate. After 1 h at 37° C., these matrices were overlaid with 100 ul of conditioned PAECs serum-free medium (transfected with siRNA, miRNA or anti-miRNA and supplemented with Ambriesentan 10 uM). Every 12 h, medium was changed and at day 4 the gels were photographed and the relative diameter of the well and the gel were measured using ImageJ. The percentage contraction was calculated using the formula 100*(well diameter−gel diamter)/well diameter. For the co-culture experiment, conditioned media from PAEC transfected as indicated were applied on PASMCs or Fibroblast previously starved (24 h). Cells were collected at different time and analyzed by western blotting.

The subject of test [5] is STAT3. Description: STAT3 phosphorylation in PASMCs (conditioned media from PAECs or endothelin-1; immunoblot). The following applies: direct exposure to endothelin-1. Format: cell-based, human. As for the experimental part: as §1, §2
Cells were lysed in RIPA buffer (Santa Cruz Biotechnology) and the protein concentration determined using a Bradford assay (Biorad). Protein lysate ([…]) were resolved by SDS-PAGE and transferred onto a PVDF membrane (Biorad). Membranes were blocked in 5% non-fat milk in TN buffer (50 mM Tris-HCl pH 7.4, 150 mM NaCl) and incubated in the presence of the primary and then secondary antibodies. After washing in TN buffer containing 0.1% Tween, immunoreactive bands were visualized with the ECL system (Amersham Biosciences). […] Primary antibodies for STAT3 (#9139) and P-STAT3 (Tyr-705; #9145) were purchased from Cell Signaling. Primary antibodies against actin (ab 3280), was obtained from Abcam. Appropriate secondary antibodies (anti-rabbit and anti-mouse) coupled to HRP were used (Santa Cruz Biotechnology).

Turning to `O=C(O)Cc1cccc(OCCCN(Cc2cccc(C(F)(F)F)c2Cl)CC(c2ccccc2)c2ccccc2)c1` [GW3965], the perivascular collagen crosslinking result in test [1] (Picrosirius Red) was “inhibited; also recorded: decreased”. For the same compound, the “Ctgf, collagen isoforms, and Lox in lung” value in test [1] (RT-qPCR) is listed as “blunted”. Also, in test [1] (Sircol assay), the “whole lung collagen content and crosslinked collagen” value is “nearly normalized”. In test [1] (hypoxic mice), the arteriolar muscularization result is recorded as “decreased; also recorded: prevented” and the “right ventricular hypertrophy (Fulton index, RV/LV+S)” value is reported as “decreased; also recorded: prevented”. In test [1] (hypoxic mice, BAPN prevention and rescue, GW3965 100 mg/kg/day in chow, 100 mg/kg/day), the RVSP entry was “decreased; also recorded: prevented”. Besides, in test [1] (in situ staining), the “hypoxia mediated decreases of Lrp8 and Pparγ” value is on record as “reversed; also recorded: prevented”; the “hypoxia-mediated increases of α-SMA and YAP” value is on record as “reduced; also recorded: blunted”. Also, in test [2], the “Pparγ and Lrp8 down-regulation” value was “reversed”; the “YAP activation, Ctgf expression” value is listed as “decreased”; the YAP nuclear localization entry is reported as “reduced”. In test [2] (two weeks), the collagen crosslinking entry is on record as “inhibited” and the “indices of lung fibrosis, Ashcroft score” value is given as “decreased”. In addition, the “Pparγ and Lrp8 (and Timp2) expression” value in test [3] (IHC / in situ stain) is listed as “blunted”. Also, the “Ctgf, collagen isoforms and Lox transcripts” value in test [3] (RT-PCR) is given as “reduced”. In addition, in test [3] (Short-130 20 mg/kg i.p. or GW3965 100 mg/kg dietary), the “collagen deposition and cross-linking” value is recorded as “blunted”. In addition, in test [3] (Short-130 or GW3965 100 mg/kg dietary), the “lung fibrosis (α-SMA, collagen staining, Ashcroft score)” value is “ameliorated”. Besides, the “Yap nuclear localization / YAP” value in test [3] (in situ stain) was “blunted”.
As for “endothelin-1: recombinant human EDN1 applied to PASMCs at 1 nM (CSCSSLMDKECVYFCHLDIIW; ends and bridges not checked; cysteine pairing not given here; UniProt P05305 53-73, looked up)”, the “matrigel contraction of PASMC culture” value in test [4] was “led to matrigel contraction”; in test [4] (listed as EDN1), “increased”. Further, the “STAT3 phosphorylation in PASMCs” value is given as “time-dependent increase” in test [5] and “increased” in test [5] (listed as EDN1).
